Activity calls are given as the source filed them. The calls are words filed in the database; no cut-off is given here.
What was measured:
Lectin (Glycine max) [1] = biological target: Lectin (Glycine max) (UniProt P05046); assay: Binding affinity to soybean lectin assessed as compound-protein complex formation incubated for 30 mins followed by UV irradiation by SDS-PAGE based photoaffinity labeling in presence of lactose
[2] = biological target: T1, Lectin (Erythrina crista-galli) (UniProt P83410); assay: Binding affinity to Erythrina cristagalli lectin assessed as compound-protein complex formation incubated for 30 mins followed by UV irradiation by SDS-PAGE based photoaffinity labeling in presence of lactose
T1 sequence (whole entry): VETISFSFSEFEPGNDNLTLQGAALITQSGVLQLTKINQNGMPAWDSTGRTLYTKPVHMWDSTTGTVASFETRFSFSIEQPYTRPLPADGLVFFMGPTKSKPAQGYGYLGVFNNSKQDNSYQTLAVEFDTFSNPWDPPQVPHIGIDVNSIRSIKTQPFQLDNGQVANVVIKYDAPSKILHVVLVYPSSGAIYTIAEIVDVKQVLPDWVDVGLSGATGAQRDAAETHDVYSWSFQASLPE

Lectin (Glycine max) [3] = biological target: Lectin (Glycine max) (UniProt P05046); assay: Binding affinity to soybean lectin assessed as compound-protein complex formation incubated for 30 mins followed by UV irradiation by SDS-PAGE based photoaffinity labeling
[4] = biological target: T1, Lectin (Erythrina crista-galli); assay: Binding affinity to Erythrina cristagalli lectin assessed as compound-protein complex formation incubated for 30 mins followed by UV irradiation by SDS-PAGE based photoaffinity labeling

Sequence of Lectin (Glycine max) (P05046 whole entry): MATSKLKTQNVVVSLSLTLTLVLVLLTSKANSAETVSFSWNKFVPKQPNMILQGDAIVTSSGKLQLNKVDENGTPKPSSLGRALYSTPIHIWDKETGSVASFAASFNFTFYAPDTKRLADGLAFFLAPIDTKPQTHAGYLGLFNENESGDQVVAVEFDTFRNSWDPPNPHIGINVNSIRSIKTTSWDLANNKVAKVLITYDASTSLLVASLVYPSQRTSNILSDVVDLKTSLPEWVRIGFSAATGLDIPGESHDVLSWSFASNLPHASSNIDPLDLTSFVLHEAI

Activity (Lectin (Glycine max) [1]): Active | Activity [2]: Active | Activity (Lectin (Glycine max) [3]): Active | Activity [4]: Active
SMILES: O=C(CCCC[C@@H]1SC[C@H]2NC(=O)N[C@@H]12)NCCOCCOCCOc1cc(C2(C(F)(F)F)N=N2)ccc1CO/N=C/[C@@H](O)[C@@H](O)[C@H](O[C@@H]1O[C@H](CO)[C@H](O)[C@H](O)[C@H]1O)[C@H](O)CO
